According to publication PMC10310851 (Signal Transduction and Targeted Therapy, 2023):
Like-named read-outs stand apart in the source and are kept apart here.

Legend:
[1] = tested on: NSCLC with ROS1 rearrangements; design: method as in PMID 28520527; conditions: cited from earlier work
[2] = design: method as in PMID 31751012; conditions: cited from earlier work
[3] = tested on: Lung cancer cell NCI-H3122; assay: Growth inhibition of cancer cell lines: NCI-H3122; format: cell-based; conditions: Homo sapiens
[4] = design: method as in PMID 25264305; conditions: cited from earlier work
[5] = tested on: ROS1-positive advanced NSCLC; design: method as in PMID 29596029; conditions: cited from earlier work
ROS1-rearranged NSCLC [6] = tested on: ROS1-rearranged NSCLC; design: method as in PMID 34511132; conditions: first-line, cited from earlier work
[7] = tested on: Lung cancer cell NCI-H2228; assay: Growth inhibition of cancer cell lines: NCI-H2228; format: cell-based; conditions: Homo sapiens
ROS1-rearranged NSCLC [8] = tested on: ROS1-rearranged NSCLC; design: method as in PMID 31416808; conditions: 2/6, METROS trial ref 13; cited from earlier work
[9] = tested on: Gastric cancer cell SNU-5; assay: Growth inhibition of cancer cell lines: SNU-5; format: cell-based; conditions: Homo sapiens
[10] = tested on: ROS1 fusion-positive NSCLC; conditions: cited from earlier work
[11] = no radiotherapy within the preceding 6 months ref 21
[12] = radiotherapy within the preceding 6 months ref 21

## Cc1cc(Nc2ncc(Cl)c(Nc3ccccc3S(=O)(=O)C(C)C)n2)c(OC(C)C)cc1C1CCNCC1 [ceritinib]
[1]
  Intracranial ORR: 29%

## C[C@@H](Oc1cc(-c2cnn(C3CCNCC3)c2)cnc1N)c1c(Cl)ccc(F)c1Cl [crizotinib]
[2]
  Any grade elevated ALT: 14%
  Any grade elevated AST: 22%
  Grade III or higher elevated ALT: 4%
  Grade III or higher elevated AST: 2%
[3]
  IC50: 214 nM
[4]
  Dizziness: 16%
  Dysgeusia: 18%
  Ophthalmological AEs: 82%
  Reduced neutrophil count: 12%
[5]; OO 12-01 study ref 15
  ORR by IRC: 71.7%
[5]
  DCR: 88.2%
  Median PFS: 15.9 months
  Rate of drug dose interruptions due to TRAEs: 22.8%
ROS1-rearranged NSCLC [6]; non-CD74-ROS1 fusions ref 27
  Median PFS: 21.0 months
ROS1-rearranged NSCLC [6]; tumor harboring CD74-ROS1 ref 27
  Median PFS: 17.0 months
[7]
  IC50: 358 nM
ROS1-rearranged NSCLC [8]
  Intracranial ORR: 33%
[9]
  IC50: 29.1 nM

## CN1CCN(c2ccc(C(=O)Nc3n[nH]c4ccc(Cc5cc(F)cc(F)c5)cc34)c(NC3CCOCC3)c2)CC1 [entrectinib]
[10]
  DCR: 75.8%
  Intracranial ORR: 79.2%
  Median PFS: 15.7 months
[10]; measurable central nervous system lesions at baseline ref 21
  Median intracranial PFS: 12.0 months
[10]; [11]
  Intracranial ORR: 46.2%
  Intracranial PFS: 8.8 months
[10]; overall patient population ref 21
  ORR: 67.1%
[10]; patients who had brain metastases at baseline ref 21
  ORR: 62.5%
[10]; patients with CD74-ROS1 fusions ref 21
  ORR: 72.9%
[10]; [12]
  Intracranial ORR: 60%
  Intracranial PFS: 16.1 months
